Laboratory results reported in patent publication US20020082224A1, “NON-IMMUNOGENIC PRODRUGS AND SELECTABLE MARKERS FOR USE IN GENE THERAPY” (priority 1997, published 2002).

What was measured:
[1] = system: acute myeloblastic leukemia (AML); conditions: as a single agent; % of patients; cited from earlier work
[2] = cited from earlier work
[3] = system: HT1080 cells; test: Tumor growth in nude mice inoculated with parental HT1080 cells, dosed with EP; format: in vivo, nude mice (Balb/c); conditions: s.c. inoculation of 5e5 cells, EP dosed 2-10 days after inoculation
Experimental: (§1) hPLAP is able to convert the prodrugs, mitomycin phosphate (MOP) and etoposide phosphate (EP), into an active mitomycin C derivative, mitomycin alcohol, and etoposide. 5e5 HT1080 cells or HT/hPLAP cells (HT1080 cells stably expressing hPLAP) are inoculated subcutaneously into nude mice (Balb/c). Tumor development occurs in 7-14 days. Etoposide phosphate is prepared by the method of […] et al., Cancer Res. 49:5789-92, 1988, or obtained from a pharmacy (e.g., manufactured by Bristol-Myers Squibb). Animals are dosed with EP as described ([…] et al., 1988) 2-10 days after inoculation with cells.

[4] = system: HT/hPLAP cells (HT1080 cells stably expressing hPLAP); test: Tumor growth in nude mice inoculated with HT/hPLAP cells, dosed with EP; format: in vivo, nude mice (Balb/c)
Experimental: as §1

SMILES	remission induced in patients with acute myeloblastic leukemia (AML) [1] [%]	concentrations in the CSF relative to plasma ([2]; IV infusion, after 2 hours of continuous infusion) [%]	Plasma half life ([2]; due to rapid deamination)	effect on tumors from parental HT1080 cells [3]	specificity of EP effect, HT1080 cells in one flank and HT/hPLAP cells in the contralateral flank ([4]; both cell types in the same animal)	effect on tumor growth of HT/hPLAP cells ([4]; s.c. inoculation of 5e5 cells, EP dosed 2-10 days after inoculation)
Nc1ccn([C@@H]2O[C@H](CO)[C@@H](O)[C@@H]2O)c(=O)n1 [ara-C, cytosine arabinoside]	50	50	less than 20 minutes			
COc1cc([C@@H]2c3cc4c(cc3[C@@H](O[C@@H]3O[C@@H]5CO[C@@H](C)O[C@H]5[C@H](O)[C@H]3O)[C@H]3COC(=O)[C@H]23)OCO4)cc(OC)c1OP(=O)(O)O [EP, etoposide phosphate]				resistant to the effect of EP	specific for cells expressing HPLAP	dose-dependent reduction in tumor growth
